# According to ChEMBL document CHEMBL5356934, “Antibacterial activities of anthraquinones: structure-activity relationships and action mechanisms” (RSC Med Chem, 2023):
# Test system: Mycobacterium tuberculosis variant bovis
# Experiment: Antimycobacterial activity against Mycobacterium bovis assessed as reduction in bacterial growth
# Type: functional
structure (smiles),measurement,value
Cc1cc(O)c2c(c1)C(=O)c1cccc(O)c1C2=O [CHRYSOPHANOL],MIC,64 µg/mL
